From patent EP0375183A1, “Antiviral dimers and trimers” (SCHERING CORPORATION, priority 1988, dated 1990)

Tested on: strain HIV-III of the Human Immunodeficiency virus (HIV)
Assay: Protection of HIV-infected human lymphocyte cell lines from virus destruction (syncytia formation, cell rounding/cytopathology), microtiter test
Assay type: cell-based
Conditions: Human immunodeficiency virus 1, Lymphocyte, continuous cell lines derived from human lymphocytes infected with HIV, incubated 7 to 14 days, microscopic inspection, tests (a) and (b), read-out: Protection of Cells
Description: Continuous cell lines derived from human lymphocytes are grown in a microtiter test system. The cells are infected with strain […] of the Human Immunodeficiency virus (HIV), a standard strain isolated from a patient with Acquired Immune Deficiency Syndrome (AIDS). The treated cells are incubated for 7 to 14 days, and the treated cells are inspected by microscope to determine (a) prevention of synctia (cell to cell fusion) formation induced by HIV, or (b) prevention of cell rounding and prevention of HIV caused cytopathology. Such inspections indicate the ability of the compound to prevent cell killing by the virus. Additionally, biochemical determination of the cell media is made to ascertain the ability of the compound to prevent formation of viral products (reverse transcriptase, p24 antigen, or other products), and prevention of formation of more HIV itself.
The control refers to the treatment without a compound of the present invention.

## Cc1cn([C@H]2C[C@H](N=[N+]=[N-])[C@@H](COP(=O)(O)OCC3CCC(n4cnc5c(N)ncnc54)C3)O2)c(=O)[nH]c1=O (some centres unmarked) [Compound of Example 1, 5′-O-[[[3-(6-Amino-9H-purin-9-yl)cyclopentyl]methoxy]hydroxyphosphinyl]-3′-azido-3′-deoxy-thymidine]
Concentration 32 µg/ml
  inhibition at 32 µg/mL: 100%
Concentration 100 µg/ml
  inhibition at 100 µg/mL: 100%
